# Data published in PubChem BioAssay AID2060908 (Molecular Pharmacology Branch, DTP, NCI, 2025).
# Tested on: 186277-243-T-J2-PDC complex spheroids, viability
# Experiment: Anticancer human tumor 186277-243-T-J2-PDC patient-derived colon adenocarcinoma cell line growth inhibition [RAS]
# Conditions: for IC50: curve of first compound; for viability, T/C: stronger effect = lower value
# Summary of the method: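 Tumour cells grown as complex spheroids with HUVEC endothelial cells and mesenchymal stem cells, treated with RAS pathway inhibitor combinations. Each agent spans half-log steps from near clinical Cmax, or 10 microM where Cmax is unknown.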
# [1] = second compound 0.000949 µM, first compound 0.0316 µM
# [2] = second compound 0.000949 µM, first compound 0.1 µM
# [3] = second compound 0.000949 µM, first compound 0.316 µM
# [4] = second compound 0.000949 µM, first compound 1 µM
# [5] = second compound 0.003 µM, first compound 0.0316 µM
# [6] = second compound 0.003 µM, first compound 0.1 µM
# [7] = second compound 0.003 µM, first compound 0.316 µM
# [8] = second compound 0.003 µM, first compound 1 µM
# [9] = second compound 0.00949 µM, first compound 0.0316 µM
# [10] = second compound 0.00949 µM, first compound 0.1 µM
# [11] = second compound 0.00949 µM, first compound 0.316 µM
# [12] = second compound 0.00949 µM, first compound 1 µM
# [13] = second compound 0.03 µM, first compound 0.0316 µM
# [14] = second compound 0.03 µM, first compound 0.1 µM
# [15] = second compound 0.03 µM, first compound 0.316 µM
# [16] = second compound 0.03 µM, first compound 1 µM
# [17] = second compound 0.0949 µM, first compound 0.0316 µM
# [18] = second compound 0.0949 µM, first compound 0.1 µM
# [19] = second compound 0.0949 µM, first compound 0.316 µM
# [20] = second compound 0.0949 µM, first compound 1 µM
# [21] = second compound 0.3 µM, first compound 0.0316 µM
# [22] = second compound 0.3 µM, first compound 0.1 µM
# [23] = second compound 0.3 µM, first compound 0.316 µM
# [24] = second compound 0.3 µM, first compound 1 µM
# 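Further: spheroids exposed to compounds for 7 days before viability read.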
smiles,measurement,setting,value
CCc1c2c(nc3ccc(O)cc13)-c1cc3c(c(=O)n1C2)COC(=O)[C@]3(O)CC + C=CC(=O)N1CCN(c2nc(OCC3CCCN3C)nc3c(F)c(-c4nc(N)cc(C)c4C(F)(F)F)c(Cl)cc23)C(C)C1,IC50,second compound 0.00316 µM,18 nM
same,IC50,second compound 0.01 µM,15.4 nM
same,IC50,second compound 0.0316 µM,28.9 nM
same,IC50,second compound 0.1 µM,22.6 nM
same,IC50,second compound 0.316 µM,26.2 nM
same,IC50,second compound 1 µM,27.5 nM
same,"viability, T/C","second compound 0.00316 µM, first compound 0.000949 µM",115%
same,"viability, T/C","second compound 0.00316 µM, first compound 0.003 µM",94.9%
same,"viability, T/C","second compound 0.00316 µM, first compound 0.00949 µM",61.3%
same,"viability, T/C","second compound 0.00316 µM, first compound 0.03 µM",40.9%
same,"viability, T/C","second compound 0.00316 µM, first compound 0.0949 µM",22.4%
same,"viability, T/C","second compound 0.00316 µM, first compound 0.3 µM",14.9%
same,"viability, T/C","second compound 0.01 µM, first compound 0.000949 µM",120%
same,"viability, T/C","second compound 0.01 µM, first compound 0.003 µM",87.5%
same,"viability, T/C","second compound 0.01 µM, first compound 0.00949 µM",55%
same,"viability, T/C","second compound 0.01 µM, first compound 0.03 µM",40.1%
same,"viability, T/C","second compound 0.01 µM, first compound 0.0949 µM",25.7%
same,"viability, T/C","second compound 0.01 µM, first compound 0.3 µM",14.2%
same,"viability, T/C","second compound 0.0316 µM, first compound 0.000949 µM",110%
same,"viability, T/C","second compound 0.0316 µM, first compound 0.003 µM",95.6%
same,"viability, T/C","second compound 0.0316 µM, first compound 0.00949 µM",68.7%
same,"viability, T/C","second compound 0.0316 µM, first compound 0.03 µM",56.6%
same,"viability, T/C","second compound 0.0316 µM, first compound 0.0949 µM",21.8%
same,"viability, T/C","second compound 0.0316 µM, first compound 0.3 µM",15.6%
same,"viability, T/C","second compound 0.1 µM, first compound 0.000949 µM",109%
same,"viability, T/C","second compound 0.1 µM, first compound 0.003 µM",98.1%
same,"viability, T/C","second compound 0.1 µM, first compound 0.00949 µM",68.7%
same,"viability, T/C","second compound 0.1 µM, first compound 0.03 µM",46%
same,"viability, T/C","second compound 0.1 µM, first compound 0.0949 µM",20.3%
same,"viability, T/C","second compound 0.1 µM, first compound 0.3 µM",13.7%
same,"viability, T/C","second compound 0.316 µM, first compound 0.000949 µM",89.2%
same,"viability, T/C","second compound 0.316 µM, first compound 0.003 µM",91.9%
same,"viability, T/C","second compound 0.316 µM, first compound 0.00949 µM",65.5%
same,"viability, T/C","second compound 0.316 µM, first compound 0.03 µM",51%
same,"viability, T/C","second compound 0.316 µM, first compound 0.0949 µM",24.5%
same,"viability, T/C","second compound 0.316 µM, first compound 0.3 µM",17.4%
same,"viability, T/C","second compound 1 µM, first compound 0.000949 µM",93.2%
same,"viability, T/C","second compound 1 µM, first compound 0.003 µM",76.1%
same,"viability, T/C","second compound 1 µM, first compound 0.00949 µM",73%
same,"viability, T/C","second compound 1 µM, first compound 0.03 µM",47.1%
same,"viability, T/C","second compound 1 µM, first compound 0.0949 µM",29%
same,"viability, T/C","second compound 1 µM, first compound 0.3 µM",17.5%
C=CC(=O)N1CCN(c2nc(OCC3CCCN3C)nc3c(F)c(-c4nc(N)cc(C)c4C(F)(F)F)c(Cl)cc23)C(C)C1 (stereo unspecified) + CCn1c(-c2cc(N3CCN(C)CC3)cnc2C(C)OC)c2c3cc(ccc31)-c1csc(n1)CC(NC(=O)C1CC1C)C(=O)N1CCCC(N1)C(=O)OCC(C)(C)C2,IC50,second compound 0.000949 µM,> 1000 nM
same,IC50,second compound 0.003 µM,> 1000 nM
same,IC50,second compound 0.00949 µM,< 3.16 nM
same,IC50,second compound 0.03 µM,< 3.16 nM
same,IC50,second compound 0.0949 µM,< 3.16 nM
same,IC50,second compound 0.3 µM,< 3.16 nM
same,"viability, T/C","second compound 0.000949 µM, first compound 0.00316 µM",100%
same,"viability, T/C","second compound 0.000949 µM, first compound 0.01 µM",95.3%
same,"viability, T/C",[1],97.8%
same,"viability, T/C",[2],82%
same,"viability, T/C",[3],96%
same,"viability, T/C",[4],95.7%
same,"viability, T/C","second compound 0.003 µM, first compound 0.00316 µM",93.8%
same,"viability, T/C","second compound 0.003 µM, first compound 0.01 µM",79%
same,"viability, T/C",[5],74.8%
same,"viability, T/C",[6],100%
same,"viability, T/C",[7],90.7%
same,"viability, T/C",[8],91.3%
same,"viability, T/C","second compound 0.00949 µM, first compound 0.00316 µM",50.9%
same,"viability, T/C","second compound 0.00949 µM, first compound 0.01 µM",43.2%
same,"viability, T/C",[9],45.5%
same,"viability, T/C",[10],47%
same,"viability, T/C",[11],49.9%
same,"viability, T/C",[12],42.9%
same,"viability, T/C","second compound 0.03 µM, first compound 0.00316 µM",15.2%
same,"viability, T/C","second compound 0.03 µM, first compound 0.01 µM",15.7%
same,"viability, T/C",[13],14%
same,"viability, T/C",[14],15.6%
same,"viability, T/C",[15],16.7%
same,"viability, T/C",[16],13.9%
same,"viability, T/C","second compound 0.0949 µM, first compound 0.00316 µM",7.43%
same,"viability, T/C","second compound 0.0949 µM, first compound 0.01 µM",6.42%
same,"viability, T/C",[17],6.99%
same,"viability, T/C",[18],6.92%
same,"viability, T/C",[19],7.72%
same,"viability, T/C",[20],6.75%
same,"viability, T/C","second compound 0.3 µM, first compound 0.00316 µM",6.06%
same,"viability, T/C","second compound 0.3 µM, first compound 0.01 µM",5.29%
same,"viability, T/C",[21],6.03%
same,"viability, T/C",[22],5.77%
same,"viability, T/C",[23],6.02%
same,"viability, T/C",[24],5.32%
C[C@@H](NC(=O)c1ncnc(N)c1Cl)c1ncc(C(=O)Nc2cc(C(F)(F)F)c(Cl)cn2)s1 + CCn1c(-c2cc(N3CCN(C)CC3)cnc2C(C)OC)c2c3cc(ccc31)-c1csc(n1)CC(NC(=O)C1CC1C)C(=O)N1CCCC(N1)C(=O)OCC(C)(C)C2,IC50,second compound 0.000949 µM,> 10000 nM
same,IC50,second compound 0.003 µM,> 10000 nM
same,IC50,second compound 0.00949 µM,3630 nM
same,IC50,second compound 0.03 µM,< 31.6 nM
same,IC50,second compound 0.0949 µM,< 31.6 nM
same,IC50,second compound 0.3 µM,< 31.6 nM
same,"viability, T/C",[1],104%
same,"viability, T/C",[2],87.5%
same,"viability, T/C",[3],88%
same,"viability, T/C",[4],88.7%
same,"viability, T/C","second compound 0.000949 µM, first compound 3.16 µM",85.9%
same,"viability, T/C","second compound 0.000949 µM, first compound 10 µM",73.6%
same,"viability, T/C",[5],108%
same,"viability, T/C",[6],114%
same,"viability, T/C",[7],109%
same,"viability, T/C",[8],82.6%
same,"viability, T/C","second compound 0.003 µM, first compound 3.16 µM",93.2%
same,"viability, T/C","second compound 0.003 µM, first compound 10 µM",54.4%
same,"viability, T/C",[9],61.7%
same,"viability, T/C",[10],83.8%
same,"viability, T/C",[11],78.6%
same,"viability, T/C",[12],71.4%
same,"viability, T/C","second compound 0.00949 µM, first compound 3.16 µM",54.2%
same,"viability, T/C","second compound 0.00949 µM, first compound 10 µM",19.8%
same,"viability, T/C",[13],21.2%
same,"viability, T/C",[14],23.7%
same,"viability, T/C",[15],25.3%
same,"viability, T/C",[16],20.9%
same,"viability, T/C","second compound 0.03 µM, first compound 3.16 µM",16.9%
same,"viability, T/C","second compound 0.03 µM, first compound 10 µM",10%
same,"viability, T/C",[17],9.22%
same,"viability, T/C",[18],10.4%
same,"viability, T/C",[19],10%
same,"viability, T/C",[20],9.11%
same,"viability, T/C","second compound 0.0949 µM, first compound 3.16 µM",8.59%
same,"viability, T/C","second compound 0.0949 µM, first compound 10 µM",7.09%
same,"viability, T/C",[21],7.68%
same,"viability, T/C",[22],8.08%
same,"viability, T/C",[23],7.77%
same,"viability, T/C",[24],7.85%
same,"viability, T/C","second compound 0.3 µM, first compound 3.16 µM",7.78%
same,"viability, T/C","second compound 0.3 µM, first compound 10 µM",4.79%
